# Assay results from PubChem BioAssay AID2060609 (Molecular Pharmacology Branch, DTP, NCI, 2025).
# Tested on: 855422-203-R-J1-PDC complex spheroids, viability
# Test: Anticancer human tumor 855422-203-R-J1-PDC patient-derived bladder carcinoma cell line growth inhibition [CLK]
# Details: for IC50: curve of first compound; for viability, T/C: stronger effect = lower value
# Summary of the method: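 Multi-cell-type spheroids combined patient-derived tumor cells with HUVEC endothelial cells and human mesenchymal stem cells. Paired agents were dosed in half-log steps down from about clinical Cmax, or from 10 microM where Cmax was unknown.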
# [1] = second compound 0.0316 µM, first compound 0.0316 µM
# [2] = second compound 0.0316 µM, first compound 0.1 µM
# [3] = second compound 0.0316 µM, first compound 0.316 µM
# [4] = second compound 0.0316 µM, first compound 1 µM
# [5] = second compound 0.0316 µM, first compound 3.16 µM
# [6] = second compound 0.0316 µM, first compound 10 µM
# [7] = second compound 0.1 µM, first compound 0.0316 µM
# [8] = second compound 0.1 µM, first compound 0.1 µM
# [9] = second compound 0.1 µM, first compound 0.316 µM
# [10] = second compound 0.1 µM, first compound 1 µM
# [11] = second compound 0.1 µM, first compound 3.16 µM
# [12] = second compound 0.1 µM, first compound 10 µM
# [13] = second compound 0.316 µM, first compound 0.0316 µM
# [14] = second compound 0.316 µM, first compound 0.1 µM
# [15] = second compound 0.316 µM, first compound 0.316 µM
# [16] = second compound 0.316 µM, first compound 1 µM
# [17] = second compound 0.316 µM, first compound 3.16 µM
# [18] = second compound 0.316 µM, first compound 10 µM
# [19] = second compound 1 µM, first compound 0.0316 µM
# [20] = second compound 1 µM, first compound 0.1 µM
# [21] = second compound 1 µM, first compound 0.316 µM
# [22] = second compound 1 µM, first compound 1 µM
# [23] = second compound 1 µM, first compound 3.16 µM
# [24] = second compound 1 µM, first compound 10 µM
# [25] = second compound 3.16 µM, first compound 0.0316 µM
# [26] = second compound 3.16 µM, first compound 0.1 µM
# [27] = second compound 3.16 µM, first compound 0.316 µM
# [28] = second compound 3.16 µM, first compound 1 µM
# [29] = second compound 3.16 µM, first compound 3.16 µM
# [30] = second compound 3.16 µM, first compound 10 µM
# [31] = second compound 10 µM, first compound 0.0316 µM
# [32] = second compound 10 µM, first compound 0.1 µM
# [33] = second compound 10 µM, first compound 0.316 µM
# [34] = second compound 10 µM, first compound 1 µM
# [35] = second compound 10 µM, first compound 3.16 µM
# [36] = second compound 10 µM, first compound 10 µM
# 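Further: spheroids exposed to drugs for seven days before readout.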
# 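Wherever viability, T/C is given: 100% = DMSO vehicle control wells.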
structure (smiles),measurement,setting,value
C#Cc1c(F)ccc2cc(O)cc(-c3ncc4c(N5CC6CCC(C5)N6)nc(OCC56CCCN5CC(F)C6)nc4c3F)c12 (stereo not drawn) + CNC(=O)c1ccc(Nc2nc(OC3CCCC3)c3c(-c4ccc5nc(C)oc5c4)c[nH]c3n2)c(OC)c1,IC50,second compound 0.0316 µM,> 10000 nM
same,IC50,second compound 0.1 µM,392 nM
same,IC50,second compound 0.316 µM,< 31.6 nM
same,IC50,second compound 1 µM,< 31.6 nM
same,IC50,second compound 3.16 µM,< 31.6 nM
same,IC50,second compound 10 µM,< 31.6 nM
same,"viability, T/C",[1],95.4%
same,"viability, T/C",[2],111%
same,"viability, T/C",[3],100%
same,"viability, T/C",[4],87.2%
same,"viability, T/C",[5],132%
same,"viability, T/C",[6],84.9%
same,"viability, T/C",[7],60.2%
same,"viability, T/C",[8],51.1%
same,"viability, T/C",[9],56.7%
same,"viability, T/C",[10],39.6%
same,"viability, T/C",[11],32.7%
same,"viability, T/C",[12],22%
same,"viability, T/C",[13],21.2%
same,"viability, T/C",[14],24.9%
same,"viability, T/C",[15],24.8%
same,"viability, T/C",[16],22.9%
same,"viability, T/C",[17],24.3%
same,"viability, T/C",[18],21.8%
same,"viability, T/C",[19],19.8%
same,"viability, T/C",[20],21.5%
same,"viability, T/C",[21],19.5%
same,"viability, T/C",[22],22.1%
same,"viability, T/C",[23],23.2%
same,"viability, T/C",[24],19.3%
same,"viability, T/C",[25],20.6%
same,"viability, T/C",[26],18.1%
same,"viability, T/C",[27],17.3%
same,"viability, T/C",[28],22%
same,"viability, T/C",[29],25.4%
same,"viability, T/C",[30],13.3%
same,"viability, T/C",[31],21.8%
same,"viability, T/C",[32],22.4%
same,"viability, T/C",[33],24.1%
same,"viability, T/C",[34],18.9%
same,"viability, T/C",[35],17.3%
same,"viability, T/C",[36],14.8%
CC(CO)NC(=O)c1cc(-c2ccc(Cl)cc2)nn(-c2cnn(C)c2)c1=O (stereo not drawn) + CNC(=O)c1ccc(Nc2nc(OC3CCCC3)c3c(-c4ccc5nc(C)oc5c4)c[nH]c3n2)c(OC)c1,IC50,second compound 0.0316 µM,> 10000 nM
same,IC50,second compound 0.1 µM,3540 nM
same,IC50,second compound 0.316 µM,< 31.6 nM
same,IC50,second compound 1 µM,< 31.6 nM
same,IC50,second compound 3.16 µM,< 31.6 nM
same,IC50,second compound 10 µM,< 31.6 nM
same,"viability, T/C",[1],99%
same,"viability, T/C",[2],78.6%
same,"viability, T/C",[3],87.3%
same,"viability, T/C",[4],95%
same,"viability, T/C",[5],96%
same,"viability, T/C",[6],80.9%
same,"viability, T/C",[7],50.1%
same,"viability, T/C",[8],50.6%
same,"viability, T/C",[9],55%
same,"viability, T/C",[10],63%
same,"viability, T/C",[11],46%
same,"viability, T/C",[12],42.5%
same,"viability, T/C",[13],23%
same,"viability, T/C",[14],21.9%
same,"viability, T/C",[15],22.9%
same,"viability, T/C",[16],22.4%
same,"viability, T/C",[17],20.8%
same,"viability, T/C",[18],21.8%
same,"viability, T/C",[19],18.8%
same,"viability, T/C",[20],19.7%
same,"viability, T/C",[21],19.8%
same,"viability, T/C",[22],20.7%
same,"viability, T/C",[23],20.5%
same,"viability, T/C",[24],21%
same,"viability, T/C",[25],24.3%
same,"viability, T/C",[26],20.9%
same,"viability, T/C",[27],22.7%
same,"viability, T/C",[28],22.2%
same,"viability, T/C",[29],22.3%
same,"viability, T/C",[30],20%
same,"viability, T/C",[31],16.7%
same,"viability, T/C",[32],21.2%
same,"viability, T/C",[33],22.2%
same,"viability, T/C",[34],20.5%
same,"viability, T/C",[35],19.9%
same,"viability, T/C",[36],20%
CC(Nc1ccc2c(c1)OCCn1cc(N3C(=O)OCC3C(F)F)nc1-2)C(N)=O (stereo not drawn) + CNC(=O)c1ccc(Nc2nc(OC3CCCC3)c3c(-c4ccc5nc(C)oc5c4)c[nH]c3n2)c(OC)c1,IC50,second compound 0.0316 µM,161 nM
same,IC50,second compound 0.1 µM,181 nM
same,IC50,second compound 0.316 µM,< 31.6 nM
same,IC50,second compound 1 µM,< 31.6 nM
same,IC50,second compound 3.16 µM,< 31.6 nM
same,IC50,second compound 10 µM,< 31.6 nM
same,"viability, T/C",[1],80.5%
same,"viability, T/C",[2],59.6%
same,"viability, T/C",[3],36.1%
same,"viability, T/C",[4],26.3%
same,"viability, T/C",[5],19.7%
same,"viability, T/C",[6],11.1%
same,"viability, T/C",[7],61.9%
same,"viability, T/C",[8],58.6%
same,"viability, T/C",[9],42.6%
same,"viability, T/C",[10],27.5%
same,"viability, T/C",[11],19.7%
same,"viability, T/C",[12],12%
same,"viability, T/C",[13],15.8%
same,"viability, T/C",[14],15.3%
same,"viability, T/C",[15],13.8%
same,"viability, T/C",[16],13.4%
same,"viability, T/C",[17],9.9%
same,"viability, T/C",[18],6.79%
same,"viability, T/C",[19],16.9%
same,"viability, T/C",[20],16.6%
same,"viability, T/C",[21],11.4%
same,"viability, T/C",[22],9.1%
same,"viability, T/C",[23],8.21%
same,"viability, T/C",[24],4.44%
same,"viability, T/C",[25],21.2%
same,"viability, T/C",[26],15.8%
same,"viability, T/C",[27],9.09%
same,"viability, T/C",[28],9.68%
same,"viability, T/C",[29],8.52%
same,"viability, T/C",[30],5.74%
same,"viability, T/C",[31],15.8%
same,"viability, T/C",[32],12.1%
same,"viability, T/C",[33],10.3%
same,"viability, T/C",[34],10.3%
same,"viability, T/C",[35],7.09%
same,"viability, T/C",[36],3.99%
COc1c(OCCCN2CCOCC2)ccc2c3n(c(=NC(=O)c4cnc(N)nc4)nc12)CCN3 + CNC(=O)c1ccc(Nc2nc(OC3CCCC3)c3c(-c4ccc5nc(C)oc5c4)c[nH]c3n2)c(OC)c1,IC50,second compound 0.0316 µM,14.2 nM
same,IC50,second compound 0.1 µM,6.2 nM
same,IC50,second compound 0.316 µM,< 3.16 nM
same,IC50,second compound 1 µM,< 3.16 nM
same,IC50,second compound 3.16 µM,< 3.16 nM
same,IC50,second compound 10 µM,< 3.16 nM
same,"viability, T/C","second compound 0.0316 µM, first compound 0.00316 µM",84.2%
same,"viability, T/C","second compound 0.0316 µM, first compound 0.01 µM",58.8%
same,"viability, T/C",[1],29.8%
same,"viability, T/C",[2],10.1%
same,"viability, T/C",[3],4.15%
same,"viability, T/C",[4],1.68%
same,"viability, T/C","second compound 0.1 µM, first compound 0.00316 µM",52%
same,"viability, T/C","second compound 0.1 µM, first compound 0.01 µM",49.5%
same,"viability, T/C",[7],25.3%
same,"viability, T/C",[8],9.48%
same,"viability, T/C",[9],3.91%
same,"viability, T/C",[10],2.07%
same,"viability, T/C","second compound 0.316 µM, first compound 0.00316 µM",17.3%
same,"viability, T/C","second compound 0.316 µM, first compound 0.01 µM",18.5%
same,"viability, T/C",[13],8.61%
same,"viability, T/C",[14],7.71%
same,"viability, T/C",[15],3.19%
same,"viability, T/C",[16],1.46%
same,"viability, T/C","second compound 1 µM, first compound 0.00316 µM",19.4%
same,"viability, T/C","second compound 1 µM, first compound 0.01 µM",16.5%
same,"viability, T/C",[19],7.5%
same,"viability, T/C",[20],3.51%
same,"viability, T/C",[21],7.67%
same,"viability, T/C",[22],1.54%
same,"viability, T/C","second compound 3.16 µM, first compound 0.00316 µM",18.8%
same,"viability, T/C","second compound 3.16 µM, first compound 0.01 µM",14.2%
same,"viability, T/C",[25],10.1%
same,"viability, T/C",[26],7.42%
same,"viability, T/C",[27],2.07%
same,"viability, T/C",[28],1.38%
same,"viability, T/C","second compound 10 µM, first compound 0.00316 µM",16.3%
same,"viability, T/C","second compound 10 µM, first compound 0.01 µM",11.2%
same,"viability, T/C",[31],6.12%
same,"viability, T/C",[32],4.26%
same,"viability, T/C",[33],3.27%
same,"viability, T/C",[34],1.62%
